Results as given in paper PMC5708334, “Synthesis of kinase inhibitors containing a pentafluorosulfanyl moiety” (Organic & Biomolecular Chemistry, 2017).

Tests used:
[1] = molecular target: PDGFRα (h) (Homo sapiens, UniProt P16234); test: Biochemical kinase assay (CEREP); settings: for IC50: 10 μM ATP, performed by CEREP
[2] = molecular target: FLT-4 (h) (VEGFR3) (Homo sapiens, UniProt P35916); test: Biochemical kinase assay (CEREP); settings: for IC50: 10 μM ATP, performed by CEREP
Experimental: We tested all synthetic compounds against a panel of kinases in a biochemical assay. Each data point was measured in duplicate (technical replicates). […] Additional kinase binding studies were performed vs. a select group of functionally and structurally divergent kinases including AAK1 (Adaptor-associated protein kinase 1), BMP2K (BMP-2-inducible protein kinase, where BMP is bone morphogenic protein), GAK (Cyclin G-associated kinase) and STK16 (Serine/threonine-protein kinase 16) (Table 1).

[3] = molecular target: T1, DYRK3 (h) (Homo sapiens, UniProt O43781); test: Biochemical kinase assay (CEREP); settings: for IC50: 10 μM ATP, performed by CEREP
T1 sequence (O43781 1-588): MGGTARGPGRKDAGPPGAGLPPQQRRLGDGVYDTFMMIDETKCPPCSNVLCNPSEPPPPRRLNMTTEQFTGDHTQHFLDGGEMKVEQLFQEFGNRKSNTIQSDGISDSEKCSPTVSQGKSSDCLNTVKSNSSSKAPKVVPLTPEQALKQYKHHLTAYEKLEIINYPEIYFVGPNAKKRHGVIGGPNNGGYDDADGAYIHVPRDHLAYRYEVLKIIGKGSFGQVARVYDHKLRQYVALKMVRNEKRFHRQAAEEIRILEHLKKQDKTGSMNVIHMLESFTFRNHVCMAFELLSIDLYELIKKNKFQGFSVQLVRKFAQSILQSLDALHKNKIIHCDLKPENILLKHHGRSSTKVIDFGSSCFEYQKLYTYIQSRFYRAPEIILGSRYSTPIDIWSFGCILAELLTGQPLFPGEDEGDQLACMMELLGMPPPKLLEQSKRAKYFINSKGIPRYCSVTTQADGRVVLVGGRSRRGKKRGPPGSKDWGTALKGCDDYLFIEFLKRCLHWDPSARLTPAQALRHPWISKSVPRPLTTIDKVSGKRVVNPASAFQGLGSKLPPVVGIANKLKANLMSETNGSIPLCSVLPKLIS

[4] = molecular target: STK16 (Serine/threonine-protein kinase 16) (Homo sapiens, UniProt O75716); test: Kinase binding displacement assay; settings: no ATP present
[5] = molecular target: BMP2K (BMP-2-inducible protein kinase) (Homo sapiens, UniProt Q9NSY1); test: Kinase binding displacement assay; settings: no ATP present
[6] = molecular target: AAK1 (Adaptor-associated protein kinase 1) (Homo sapiens, UniProt Q2M2I8); test: Kinase binding displacement assay; settings: no ATP present
[7] = molecular target: T2, GAK (Cyclin G-associated kinase) (Homo sapiens, UniProt O14976); test: Kinase binding displacement assay; settings: no ATP present
T2 sequence (O14976 1-1311): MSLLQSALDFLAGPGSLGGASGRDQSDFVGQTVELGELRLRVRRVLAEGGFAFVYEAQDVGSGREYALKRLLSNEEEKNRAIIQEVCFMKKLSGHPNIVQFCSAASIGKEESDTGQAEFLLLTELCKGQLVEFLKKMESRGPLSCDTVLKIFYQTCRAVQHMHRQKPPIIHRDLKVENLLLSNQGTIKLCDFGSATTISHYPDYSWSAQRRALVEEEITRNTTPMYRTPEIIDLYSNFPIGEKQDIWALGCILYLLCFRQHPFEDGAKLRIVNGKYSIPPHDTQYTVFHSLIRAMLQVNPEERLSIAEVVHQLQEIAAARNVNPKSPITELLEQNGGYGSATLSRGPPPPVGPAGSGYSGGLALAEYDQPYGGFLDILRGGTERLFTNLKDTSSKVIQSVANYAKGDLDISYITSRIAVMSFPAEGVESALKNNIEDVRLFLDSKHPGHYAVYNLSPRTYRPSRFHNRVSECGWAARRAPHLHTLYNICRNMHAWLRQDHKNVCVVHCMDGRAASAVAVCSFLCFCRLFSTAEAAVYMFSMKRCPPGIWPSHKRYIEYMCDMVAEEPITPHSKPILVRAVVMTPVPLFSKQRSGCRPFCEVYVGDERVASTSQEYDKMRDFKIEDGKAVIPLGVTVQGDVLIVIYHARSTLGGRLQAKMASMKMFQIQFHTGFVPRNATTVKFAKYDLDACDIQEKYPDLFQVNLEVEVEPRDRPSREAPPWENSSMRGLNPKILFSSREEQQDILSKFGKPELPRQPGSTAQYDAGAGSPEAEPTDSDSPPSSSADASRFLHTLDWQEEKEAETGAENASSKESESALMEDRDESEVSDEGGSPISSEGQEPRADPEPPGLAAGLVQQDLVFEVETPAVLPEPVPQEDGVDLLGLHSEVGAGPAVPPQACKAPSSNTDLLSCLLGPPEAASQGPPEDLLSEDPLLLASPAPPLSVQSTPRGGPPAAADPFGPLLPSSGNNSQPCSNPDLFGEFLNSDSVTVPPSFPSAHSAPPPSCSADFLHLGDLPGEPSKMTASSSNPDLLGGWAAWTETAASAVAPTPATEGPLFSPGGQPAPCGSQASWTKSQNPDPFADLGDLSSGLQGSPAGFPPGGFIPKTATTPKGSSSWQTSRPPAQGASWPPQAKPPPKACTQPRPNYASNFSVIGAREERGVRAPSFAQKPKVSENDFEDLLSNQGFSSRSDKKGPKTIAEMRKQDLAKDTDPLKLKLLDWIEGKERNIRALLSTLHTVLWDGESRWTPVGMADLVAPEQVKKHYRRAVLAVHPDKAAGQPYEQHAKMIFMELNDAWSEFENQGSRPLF

[8] = system: T47D; test: Cell proliferation assay; format: cell-based; settings: Homo sapiens, 50% reduction in cellular proliferation vs DMSO-treated control, read-out: GC50 T47D
Source text: (§1) The synthesized compounds were next tested in breast cancer and non-transformed breast cell lines.

[9] = system: MCF7; test: Cell proliferation assay; format: cell-based; settings: Homo sapiens, 50% reduction in cellular proliferation vs DMSO-treated control, read-out: GC50 MCF7
Source text: as §1

[10] = system: MCF7 and T47D breast cancer cell; test: Cell proliferation assay (range over both lines); format: cell-based; settings: range over both compounds and both cell lines; read-out: GC50 values, MCF7 and T47D (range)
Source text: as §1

Chain of BMP2K (BMP-2-inducible protein kinase) (Q9NSY1 whole entry, species assumed): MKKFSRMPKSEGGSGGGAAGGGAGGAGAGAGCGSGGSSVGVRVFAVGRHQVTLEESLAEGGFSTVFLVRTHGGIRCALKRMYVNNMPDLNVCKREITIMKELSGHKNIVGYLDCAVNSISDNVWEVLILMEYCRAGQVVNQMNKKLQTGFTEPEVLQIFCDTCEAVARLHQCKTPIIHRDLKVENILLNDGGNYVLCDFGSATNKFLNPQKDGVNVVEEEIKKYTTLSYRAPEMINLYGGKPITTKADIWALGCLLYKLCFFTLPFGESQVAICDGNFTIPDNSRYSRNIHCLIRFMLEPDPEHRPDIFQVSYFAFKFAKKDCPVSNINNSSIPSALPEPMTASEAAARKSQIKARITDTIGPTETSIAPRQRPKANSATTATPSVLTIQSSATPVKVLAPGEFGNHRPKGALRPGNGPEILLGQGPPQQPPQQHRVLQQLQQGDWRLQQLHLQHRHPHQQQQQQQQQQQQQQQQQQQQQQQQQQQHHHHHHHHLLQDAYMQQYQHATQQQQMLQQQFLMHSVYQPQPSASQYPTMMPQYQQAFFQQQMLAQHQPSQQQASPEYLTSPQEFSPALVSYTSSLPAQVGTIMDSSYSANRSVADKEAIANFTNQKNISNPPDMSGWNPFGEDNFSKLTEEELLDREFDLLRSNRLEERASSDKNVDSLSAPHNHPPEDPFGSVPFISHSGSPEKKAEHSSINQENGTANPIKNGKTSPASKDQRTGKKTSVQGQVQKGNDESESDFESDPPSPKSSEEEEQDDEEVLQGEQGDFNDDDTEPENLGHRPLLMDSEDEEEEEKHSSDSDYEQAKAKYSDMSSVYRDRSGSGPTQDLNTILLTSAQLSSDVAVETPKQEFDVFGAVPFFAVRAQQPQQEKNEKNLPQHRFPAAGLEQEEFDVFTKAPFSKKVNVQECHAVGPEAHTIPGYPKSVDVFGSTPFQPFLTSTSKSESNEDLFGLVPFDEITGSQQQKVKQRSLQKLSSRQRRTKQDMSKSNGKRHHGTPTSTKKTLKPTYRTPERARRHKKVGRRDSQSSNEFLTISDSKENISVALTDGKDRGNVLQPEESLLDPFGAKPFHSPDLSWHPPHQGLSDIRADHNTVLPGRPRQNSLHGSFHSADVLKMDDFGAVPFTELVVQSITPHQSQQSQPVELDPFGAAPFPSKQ
Chain of AAK1 (Adaptor-associated protein kinase 1) (Q2M2I8 whole entry, species assumed): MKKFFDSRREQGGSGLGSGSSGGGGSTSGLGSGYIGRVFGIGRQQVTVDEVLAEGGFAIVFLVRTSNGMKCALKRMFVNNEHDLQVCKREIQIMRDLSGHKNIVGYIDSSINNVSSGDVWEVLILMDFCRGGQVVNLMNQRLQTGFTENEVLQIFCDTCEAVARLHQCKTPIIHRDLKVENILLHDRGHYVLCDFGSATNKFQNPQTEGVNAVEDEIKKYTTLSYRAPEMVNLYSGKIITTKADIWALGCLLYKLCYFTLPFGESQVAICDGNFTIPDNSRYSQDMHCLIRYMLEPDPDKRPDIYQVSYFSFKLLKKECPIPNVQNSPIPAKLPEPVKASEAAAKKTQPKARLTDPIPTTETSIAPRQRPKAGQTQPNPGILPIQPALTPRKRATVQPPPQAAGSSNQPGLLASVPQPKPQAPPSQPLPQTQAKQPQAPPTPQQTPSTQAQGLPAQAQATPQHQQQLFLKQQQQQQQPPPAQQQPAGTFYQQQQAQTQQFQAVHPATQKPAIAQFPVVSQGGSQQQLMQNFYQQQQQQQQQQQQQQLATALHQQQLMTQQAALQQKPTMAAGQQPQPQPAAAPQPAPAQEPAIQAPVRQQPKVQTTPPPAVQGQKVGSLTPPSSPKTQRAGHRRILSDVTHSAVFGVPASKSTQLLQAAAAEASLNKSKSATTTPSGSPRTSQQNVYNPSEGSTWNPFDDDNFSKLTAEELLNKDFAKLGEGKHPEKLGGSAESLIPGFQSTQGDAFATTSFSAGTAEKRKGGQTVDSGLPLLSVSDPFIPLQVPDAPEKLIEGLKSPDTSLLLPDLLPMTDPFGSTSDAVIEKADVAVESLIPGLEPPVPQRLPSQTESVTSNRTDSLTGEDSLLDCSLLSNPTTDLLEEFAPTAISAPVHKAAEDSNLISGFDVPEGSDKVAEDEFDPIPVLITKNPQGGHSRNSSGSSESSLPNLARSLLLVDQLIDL
Chain of PDGFRα (h) (P16234 24-1089): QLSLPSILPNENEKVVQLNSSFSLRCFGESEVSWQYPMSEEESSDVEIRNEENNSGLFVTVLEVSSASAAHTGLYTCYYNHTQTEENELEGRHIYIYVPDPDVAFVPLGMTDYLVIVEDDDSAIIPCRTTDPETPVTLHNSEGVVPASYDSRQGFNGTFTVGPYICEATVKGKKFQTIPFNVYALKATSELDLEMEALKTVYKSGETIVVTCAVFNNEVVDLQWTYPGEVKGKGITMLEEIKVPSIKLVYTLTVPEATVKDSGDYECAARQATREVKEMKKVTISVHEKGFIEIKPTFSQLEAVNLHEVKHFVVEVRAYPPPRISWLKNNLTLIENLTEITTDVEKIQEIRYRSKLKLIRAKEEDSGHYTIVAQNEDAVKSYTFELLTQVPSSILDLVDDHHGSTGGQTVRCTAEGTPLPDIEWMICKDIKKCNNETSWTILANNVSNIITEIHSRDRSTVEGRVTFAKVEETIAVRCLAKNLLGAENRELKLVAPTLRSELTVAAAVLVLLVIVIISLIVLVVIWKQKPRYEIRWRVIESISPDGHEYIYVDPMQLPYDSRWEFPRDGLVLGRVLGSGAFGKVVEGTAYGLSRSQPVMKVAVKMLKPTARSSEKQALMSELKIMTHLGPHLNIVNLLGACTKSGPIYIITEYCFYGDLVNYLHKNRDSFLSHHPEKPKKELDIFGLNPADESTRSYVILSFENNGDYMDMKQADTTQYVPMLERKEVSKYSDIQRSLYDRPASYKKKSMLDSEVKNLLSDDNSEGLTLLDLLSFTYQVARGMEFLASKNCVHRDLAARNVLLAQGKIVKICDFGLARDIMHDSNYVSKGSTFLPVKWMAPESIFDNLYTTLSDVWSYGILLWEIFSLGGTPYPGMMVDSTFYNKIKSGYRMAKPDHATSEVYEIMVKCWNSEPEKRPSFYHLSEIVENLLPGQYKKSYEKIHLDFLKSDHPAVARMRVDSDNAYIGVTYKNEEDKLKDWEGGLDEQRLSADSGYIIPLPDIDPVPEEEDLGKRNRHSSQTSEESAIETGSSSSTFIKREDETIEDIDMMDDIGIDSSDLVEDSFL
Chain of STK16 (Serine/threonine-protein kinase 16) (O75716 whole entry, species assumed): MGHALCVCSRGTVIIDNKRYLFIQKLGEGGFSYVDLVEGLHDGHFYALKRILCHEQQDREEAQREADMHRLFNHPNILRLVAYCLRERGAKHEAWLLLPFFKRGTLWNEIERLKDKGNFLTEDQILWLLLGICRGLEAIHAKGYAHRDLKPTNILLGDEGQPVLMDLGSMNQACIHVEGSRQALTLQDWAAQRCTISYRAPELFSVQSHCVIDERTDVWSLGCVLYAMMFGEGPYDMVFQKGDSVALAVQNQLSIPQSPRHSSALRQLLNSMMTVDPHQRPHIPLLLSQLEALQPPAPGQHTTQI
Chain of FLT-4 (h) (VEGFR3) (P35916 25-1363): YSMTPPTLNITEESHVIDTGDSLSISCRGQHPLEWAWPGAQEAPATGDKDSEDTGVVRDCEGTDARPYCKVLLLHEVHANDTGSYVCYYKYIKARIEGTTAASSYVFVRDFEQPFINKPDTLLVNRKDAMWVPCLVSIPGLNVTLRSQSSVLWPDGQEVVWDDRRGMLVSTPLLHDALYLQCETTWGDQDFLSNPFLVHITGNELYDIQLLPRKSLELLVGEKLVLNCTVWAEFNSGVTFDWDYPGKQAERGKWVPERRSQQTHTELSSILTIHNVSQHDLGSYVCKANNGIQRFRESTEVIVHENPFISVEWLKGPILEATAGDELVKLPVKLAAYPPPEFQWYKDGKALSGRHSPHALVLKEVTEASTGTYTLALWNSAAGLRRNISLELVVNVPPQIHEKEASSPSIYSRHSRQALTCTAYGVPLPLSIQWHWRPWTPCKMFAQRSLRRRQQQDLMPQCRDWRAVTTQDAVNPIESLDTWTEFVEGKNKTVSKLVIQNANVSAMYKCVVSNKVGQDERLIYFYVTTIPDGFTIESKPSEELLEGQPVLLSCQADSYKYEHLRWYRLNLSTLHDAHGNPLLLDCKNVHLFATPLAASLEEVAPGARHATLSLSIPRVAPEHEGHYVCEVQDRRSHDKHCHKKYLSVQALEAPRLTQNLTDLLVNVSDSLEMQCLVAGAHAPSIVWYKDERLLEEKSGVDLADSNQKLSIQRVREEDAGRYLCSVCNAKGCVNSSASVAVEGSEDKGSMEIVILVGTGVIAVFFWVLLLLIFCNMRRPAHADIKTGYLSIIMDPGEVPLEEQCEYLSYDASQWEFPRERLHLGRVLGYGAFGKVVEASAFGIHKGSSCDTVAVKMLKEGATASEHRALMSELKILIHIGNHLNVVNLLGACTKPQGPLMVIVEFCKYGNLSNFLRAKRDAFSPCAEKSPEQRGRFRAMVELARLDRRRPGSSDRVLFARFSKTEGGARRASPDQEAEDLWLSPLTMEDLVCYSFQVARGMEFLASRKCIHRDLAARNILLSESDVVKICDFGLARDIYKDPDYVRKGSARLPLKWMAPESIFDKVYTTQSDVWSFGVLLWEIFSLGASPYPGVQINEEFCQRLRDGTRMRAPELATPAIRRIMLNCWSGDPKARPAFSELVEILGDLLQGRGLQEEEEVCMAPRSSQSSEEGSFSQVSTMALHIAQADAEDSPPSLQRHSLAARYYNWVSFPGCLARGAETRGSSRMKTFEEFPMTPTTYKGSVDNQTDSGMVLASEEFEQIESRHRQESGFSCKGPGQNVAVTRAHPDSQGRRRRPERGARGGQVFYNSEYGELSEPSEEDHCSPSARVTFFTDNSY

Row | Molecule | IC50 [1] [µM] | IC50 [2] [µM] | inhibition of DYRK3 [3] | IC50 [3] [µM] | IC50 [4] [µM] | IC50 [5] [µM] | IC50 [6] [µM] | IC50 [7] [µM] | IC50 [8] [µM] | IC50 [9] [µM] | IC50 [10] [µM] | potency vs. PDGFRα [1] [µM] | IC50 vs. PDGFRα [1] | IC50 vs. VEGFR3 [2]
1 | 5-Pentafluorosulfanyl-3-ferrocenylindolin-2-one [Compound 12a] | > 1 | > 1 | low micromolar range | 1.7 | – | – | – | – | – | – | – | – | – | –
2 | O=C1Nc2ccc(S(F)(F)(F)(F)F)cc2/C1=C/c1ccc[nH]1 [Compound 10, (Z)-3-(1H-Pyrrol-2-yl)methylene-5-pentafluorosulfanylindoline-2-one] | > 1 | > 1 | – | > 1 | 17.6 | 0.452 | 1 | 34.2 | 0.49 ± 0.4 | 4.8 ± 1 | 0.35 to 3.8 | – | – | –
3 | O=C1Nc2cc(S(F)(F)(F)(F)F)ccc2/C1=C/c1ccc[nH]1 [Compound 11, (Z)-3-(1H-Pyrrol-2-yl)methylene-6-pentafluorosulfanylindoline-2-one] | 0.098 | 0.23 | – | > 1 | 135 | 187 | 1000 | 0.476 | 0.35 ± 0.1 | 0.69 ± 0.4 | 0.35 to 3.8 | 0.098 | – | –

Next, values leading:

Row | IC50 [1] [µM] | IC50 [2] [µM] | inhibition of DYRK3 [3] | IC50 [3] [µM] | IC50 [4] [µM] | IC50 [5] [µM] | IC50 [6] [µM] | IC50 [7] [µM] | IC50 [8] [µM] | IC50 [9] [µM] | IC50 [10] [µM] | potency vs. PDGFRα [1] [µM] | IC50 vs. PDGFRα [1] | IC50 vs. VEGFR3 [2] | Molecule
4 | > 1 | > 1 | low micromolar range | 2.4 | – | – | – | – | – | – | – | – | – | – | 5-Pentafluorosulfanyl-3-ferrocenylindolin-2-one [Compound 12b]
5 | > 1 | 0.53 | – | > 1 | > 1 | > 1 | > 1 | > 1 | – | – | – | – | – | – | Cc1[nH]c(/C=C2\C(=O)Nc3ccc(S(F)(F)(F)(F)F)cc32)c(C)c1CCC(=O)O [Compound 13, (Z)-3-(2,4-Dimethyl-5-((5-pentafluorosulfanyl-2-oxoindolin-3-ylidene)methyl)-1H-pyrrol-3-yl)propanoic acid]
6 | 0.0031 | 0.018 | – | > 1 | > 1 | > 1 | > 1 | > 1 | – | – | – | – | low nM potency | low nM potency | Cc1[nH]c(/C=C2\C(=O)Nc3cc(S(F)(F)(F)(F)F)ccc32)c(C)c1CCC(=O)O [Compound 14, (Z)-3-(2,4-Dimethyl-5-((6-pentafluorosulfanyl-2-oxoindolin-3-ylidene)methyl)-1H-pyrrol-3-yl)propanoic acid]
